Source: patent US20090099140A1, “20-Alkyl, Gemini Vitamin D3 Compounds and Methods of Use Thereof” (BioXell S.p.A., priority 2005, published 2009)
Read-outs that look alike come from different tables or passages of the source.

Key:
IFN-γ production = IFN-γ production by allogeneic T cell activation in the mixed leukocyte response (MLR); assay type: cell-based; settings: MLR of allogeneic PBMC from 2 different donors, 5 days, IFN-γ by ELISA, 50% inhibition of IFN-γ production
Protocol: Immature dendritic cells (DC) were prepared as described in Romani, N. et al., J. Immunol. Meth. 196:137. IFN-γ production by allogeneic T cell activation in the mixed leukocyte response (MLR) was determined as described in Penna, G., et al., J. Immunol., 164: 2405-2411 (2000).
Briefly, peripheral blood mononuclear cells (PBMC) were separated from buffy coats by Ficoll gradient and the same number (3×105) of allogeneic PBMC from 2 different donors were co-cultured in 96-well flat-bottom plates. After 5 days, IFN-γ production in the MLR assay was measured by ELISA and the results expressed as amount (nM) of test compound required to induce 50% inhibition of IFN-γ production (IC50) (Table 1).

[1] = Determination of maximum tolerated dose (MTD), highest oral dose without hypercalcemia (serum calcium); assay type: in vivo; settings: in vivo, po
Protocol: The maximum tolerated dose of the vitamin D3 compounds of the invention were determined in eight week-old female C57BL/6 mice (3 mice/group) dosed orally (0.1 ml/mouse) with various concentrations of Vitamin D3 analogs daily for four days. Analogs were formulated in miglyol for a final concentration of 10, 30, 100 and 300 μg/kg when given at 0.1 ml/mouse p.o. daily. Blood for serum calcium assay was drawn by tail bleed on day five, the final day of the study. Serum calcium levels were determined using a colorimetric assay (Sigma Diagnostics, procedure no. 597). The highest dose of analog tolerated without inducing hypercalcemia (serum calcium >10.7 mg/dl) was taken as the maximum tolerated does (MTD).

[2] = mouse, eight week-old female C57BL/6 mice, p.o. daily for four days in miglyol, highest dose without hypercalcemia (serum calcium >10.7 mg/dl) on day five, read-out: MTD (mice)

In the case of C=C1/C(=C\C=C2/CCC[C@@]3(C)C2CC[C@@H]3C(C)(CCCC(C)(C)O)CCCC(C)(C)O)CC(O)C[C@@H]1O (some centres unmarked) [Compound 1, 1,25-Dihydroxy-20-(4-hydroxy-4-methyl-pentyl)cholecalciferol], the IC50 (IFN-γ production; 120 h) is reported as 0.518 nM and the MTD at 4 days [1, 2] is reported as 3 µg/kg.
Work on CC(C)(O)CCCC(C)(CCCC(C)(C)O)[C@H]1CCC2/C(=C/C=C3/CC(O)C[C@H](O)C3)CCC[C@@]21C (some centres unmarked) [Compound 2, 1,25-Dihydroxy-20-(4-hydroxy-4-methyl-pentyl)-19-nor-cholecalciferol] yielded an IC50 (IFN-γ production; 120 h) of 0.744 nM and an MTD at 4 days [1, 2] of under 30 µg/kg.
Work on C=C1/C(=C\C=C2/CCC[C@@]3(C)C2CC[C@@H]3C(C)(CCCC(C)(C)O)CCCC(C)(C)O)CC(O)C[C@@H]1F (stereo partly drawn) [Compound 3, 1α-Fluoro-25-hydroxy-20-(4-hydroxy-4-methyl-pentyl)-cholecalciferol] yielded an IC50 (IFN-γ production; 120 h) of 6.27 nM and an MTD at 4 days ([1]; female, C57BL/6, mouse) of over 300 µg/kg.
C=C1/C(=C\C=C2/CCC[C@@]3(C)C2CC[C@@H]3[C@](C)(CC#CC(O)(C(F)(F)F)C(F)(F)F)CCCC(C)(C)O)CC(O)C[C@@H]1O (stereo partly drawn) [Compound 4, (20S)-1,25-Dihydroxy-20-(5,5,5-trifluoro-4-hydroxy-4-trifluoromethyl-pent-2-ynyl)cholecalciferol] showed an IC50 (IFN-γ production; 120 h) of 0.049 nM and an MTD at 4 days [1, 2] of 0.3 µg/kg.
For C=C1/C(=C\C=C2/CCC[C@@]3(C)C2CC[C@@H]3[C@](C)(C/C=C\C(O)(C(F)(F)F)C(F)(F)F)CCCC(C)(C)O)CC(O)C[C@@H]1O (stereo partly drawn) [Compound 5, (20S)-1,25-Dihydroxy-20-(5,5,5-trifluoro-4-hydroxy-4-trifluoromethyl-pent-(2Z)-enyl)cholecalciferol], the IC50 (IFN-γ production; 120 h) was 0.042 nM and the MTD at 4 days [1, 2] was 0.3 µg/kg.
Compound C=C1/C(=C\C=C2/CCC[C@@]3(C)C2CC[C@@H]3[C@@](C)(CC#CC(O)(C(F)(F)F)C(F)(F)F)CCCC(C)(C)O)C[C@@H](O)C[C@@H]1O (stereo partly drawn) [Compound 7, (20R)-1,25-Dihydroxy-20-(5,5,5-trifluoro-4-hydroxy-4-trifluoromethyl-pent-2-ynyl)-cholecalciferol] has an IC50 (IFN-γ production; 120 h) of 0.038 nM.
Work on C=C1/C(=C\C=C2/CCC[C@@]3(C)C2CC[C@@H]3[C@@](C)(C/C=C\C(O)(C(F)(F)F)C(F)(F)F)CCCC(C)(C)O)C[C@@H](O)C[C@@H]1O (stereo partly drawn) [Compound 8, (20R)-1,25-Dihydroxy-20-[(2Z)-5,5,5-trifluoro-4-hydroxy-4-trifluoromethyl-pent-2-enyl]-cholecalciferol] yielded an IC50 (IFN-γ production; 120 h) of 0.057 nM and an MTD at 4 days [1, 2] of 0.3 µg/kg.
Compound C=C1/C(=C\C=C2/CCC[C@@]3(C)C2CC[C@@H]3[C@@](C)(C/C=C/C(O)(C(F)(F)F)C(F)(F)F)CCCC(C)(C)O)C[C@@H](O)C[C@@H]1O (stereo partly drawn) [Compound 9, (20R)-1,25-Dihydroxy-20-[(2E)-5,5,5-trifluoro-4-hydroxy-4-trifluoromethyl-pent-2-enyl]-cholecalciferol] has an IC50 (IFN-γ production; 120 h) of 0.049 nM and an MTD at 4 days [1, 2] of 0.1 µg/kg.
CC(C)(O)CCC[C@@](C)(CC#CC(O)(C(F)(F)F)C(F)(F)F)[C@H]1CCC2/C(=C/C=C3/CC(O)C[C@H](O)C3)CCC[C@@]21C (stereo partly drawn) [Compound 10, (20S)-1,25-Dihydroxy-20-(5,5,5-trifluoro-4-hydroxy-4-trifluoromethyl-pent-2-ynyl)-19-nor-cholecalciferol] showed an IC50 (IFN-γ production; 120 h) of 0.0436 nM and an MTD at 4 days [1, 2] of 0.3 µg/kg.
In the case of CC(C)(O)CCC[C@@](C)(C/C=C\C(O)(C(F)(F)F)C(F)(F)F)[C@H]1CCC2/C(=C/C=C3/CC(O)C[C@H](O)C3)CCC[C@@]21C (stereo partly drawn) [Compound 11, (20S)-1,25-Dihydroxy-20-[(2Z)-5,5,5-trifluoro-4-hydroxy-4-trifluoromethyl-pent-2-enyl]-19-nor-cholecalciferol], the IC50 (IFN-γ production; 120 h) is reported as 0.253 nM and the MTD at 4 days [1, 2] is reported as 3 µg/kg.
In the case of [2H]C([2H])([2H])C(O)(CCCC(C)(C/C=C/C(O)(C(F)(F)F)C(F)(F)F)[C@H]1CCC2/C(=C/C=C3/C[C@@H](O)C[C@H](O)C3=C)CCC[C@@]21C)C([2H])([2H])[2H] (stereo partly drawn) [Compound 19, 1,25-Dihydroxy-20S-20-(4-hydroxy-5,5,5-trideutero-4-trideuteromethyl-pentyl)-23E-ene-26,27-hexafluorocholecalciferol], the MTD at 4 days [1, 2] is reported as 0.1 µg/kg.
[2H]C([2H])([2H])C(O)(CCCC(C)(C/C=C/C(O)(C(F)(F)F)C(F)(F)F)[C@H]1CCC2/C(=C/C=C3C[C@@H](O)C[C@H](O)C3)CCC[C@@]21C)C([2H])([2H])[2H] (stereo partly drawn) [Compound 20, 1,25-Dihydroxy-20S-20-(4-hydroxy-5,5,5-trideutero-4-trideuteromethyl-pentyl)-23E-ene-26,27-hexafluoro-19-nor-cholecalciferol] gave an MTD at 4 days [1, 2] of 0.1 µg/kg.
In the case of [2H]C([2H])([2H])C(O)(CCCC(C)(CC#CC(O)(C(F)(F)F)C(F)(F)F)[C@H]1CCC2/C(=C/C=C3/C[C@@H](O)C[C@H](O)C3=C)CCC[C@@]21C)C([2H])([2H])[2H] (stereo partly drawn) [Compound 22, 1,25-Dihydroxy-20S-20-(4-hydroxy-5,5,5-trideutero-4-trideuteromethyl-pentyl)-23-yne-26,27-hexafluorocholecalciferol], the MTD at 4 days [1, 2] is reported as 0.3 µg/kg.
In the case of [2H]C([2H])([2H])C(O)(CCCC(C)(CC#CC(O)(C(F)(F)F)C(F)(F)F)[C@H]1CCC2/C(=C/C=C3C[C@@H](O)C[C@H](O)C3)CCC[C@@]21C)C([2H])([2H])[2H] (stereo partly drawn) [Compound 23, 1,25-Dihydroxy-20S-20-(4-hydroxy-5,5,5-trideutero-4-trideuteromethyl-pentyl)-23-yne-26,27-hexafluoro-19-nor-cholecalciferol], the MTD at 4 days [1, 2] is reported as 1 µg/kg.
[2H]C([2H])([2H])C(O)(CCC[C@](C)(C/C=C\C(O)(C(F)(F)F)C(F)(F)F)[C@H]1CCC2/C(=C/C=C3C[C@@H](O)C[C@H](O)C3)CCC[C@@]21C)C([2H])([2H])[2H] (stereo partly drawn) [Compound 26, 1,25-Dihydroxy-20R-20-(4-hydroxy-5,5,5-trideutero-4-trideuteromethyl-pentyl)-23Z-ene-26,27-hexafluoro-19-nor-cholecalciferol] gave an MTD at 4 days [1, 2] of 0.3 µg/kg.
Work on [2H]C([2H])([2H])C(O)(CCC[C@](C)(C/C=C\C(O)(C(F)(F)F)C(F)(F)F)[C@H]1CCC2/C(=C/C=C3/C[C@@H](O)C[C@H](F)C3=C)CCC[C@@]21C)C([2H])([2H])[2H] (stereo partly drawn) [Compound 27, 1α-Fluoro-25-hydroxy-20R-20-(4-hydroxy-5,5,5-trideutero-4-trideuteromethyl-pentyl)-23Z-ene-26,27-hexafluorocholecalciferol] yielded an IC50 (IFN-γ production; 120 h) of 0.307 nM.
Compound [2H]C([2H])([2H])C(O)(CCC[C@](C)(C/C=C/C(O)(C(F)(F)F)C(F)(F)F)[C@H]1CCC2/C(=C/C=C3/C[C@@H](O)C[C@H](O)C3=C)CCC[C@@]21C)C([2H])([2H])[2H] (stereo partly drawn) [Compound 28, 1,25-Dihydroxy-20R-20-(4-hydroxy-5,5,5-trideutero-4-trideuteromethyl-pentyl)-23E-ene-26,27-hexafluorocholecalciferol] has an MTD at 4 days [1, 2] of 0.3 µg/kg.
Compound [2H]C([2H])([2H])C(O)(CCC[C@](C)(C/C=C/C(O)(C(F)(F)F)C(F)(F)F)[C@H]1CCC2/C(=C/C=C3C[C@@H](O)C[C@H](O)C3)CCC[C@@]21C)C([2H])([2H])[2H] (stereo partly drawn) [Compound 29, 1,25-Dihydroxy-20R-20-(4-hydroxy-5,5,5-trideutero-4-trideuteromethyl-pentyl)-23E-ene-26,27-hexafluoro-19-nor-cholecalciferol] has an MTD at 4 days [1, 2] of 0.1 µg/kg.
[2H]C([2H])([2H])C(O)(CCC[C@](C)(C/C=C/C(O)(C(F)(F)F)C(F)(F)F)[C@H]1CCC2/C(=C/C=C3/C[C@@H](O)C[C@H](F)C3=C)CCC[C@@]21C)C([2H])([2H])[2H] (stereo partly drawn) [Compound 30, 1α-Fluoro-25-hydroxy-20R-20-(4-hydroxy-5,5,5-trideutero-4-trideuteromethyl-pentyl)-23E-ene-26,27-hexafluorocholecalciferol] gave an IC50 (IFN-γ production; 120 h) of 0.012 nM.
Work on [2H]C([2H])([2H])C(O)(CCC[C@](C)(CC#CC(O)(C(F)(F)F)C(F)(F)F)[C@H]1CCC2/C(=C/C=C3/C[C@@H](O)C[C@H](O)C3=C)CCC[C@@]21C)C([2H])([2H])[2H] (stereo partly drawn) [Compound 31, 1,25-Dihydroxy-20R-20-(4-hydroxy-5,5,5-trideutero-4-trideuteromethyl-pentyl)-23-yne-26,27-hexafluorocholecalciferol] yielded an MTD at 4 days [1, 2] of 0.3 µg/kg.
Work on [2H]C([2H])([2H])C(O)(CCC[C@](C)(CC#CC(O)(C(F)(F)F)C(F)(F)F)[C@H]1CCC2/C(=C/C=C3C[C@@H](O)C[C@H](O)C3)CCC[C@@]21C)C([2H])([2H])[2H] (stereo partly drawn) [Compound 32, 1,25-Dihydroxy-20R-20-(4-hydroxy-5,5,5-trideutero-4-trideuteromethyl-pentyl)-23-yne-26,27-hexafluoro-19-nor-cholecalciferol] yielded an MTD at 4 days [1, 2] of 0.3 µg/kg.
In the case of [2H]C([2H])([2H])C(O)(CCC[C@](C)(CC#CC(O)(C(F)(F)F)C(F)(F)F)[C@H]1CCC2/C(=C/C=C3/C[C@@H](O)C[C@H](F)C3=C)CCC[C@@]21C)C([2H])([2H])[2H] (stereo partly drawn) [Compound 33, 1α-Fluoro-25-hydroxy-20R-20-(4-hydroxy-5,5,5-trideutero-4-trideuteromethyl-pentyl)-23-yne-26,27-hexafluorocholecalciferol], the IC50 (IFN-γ production; 120 h) is reported as 0.0132 nM.
For “(20S)-1,25-Dihydroxy-20-[(2E)-5,5,5-trifluoro-4-hydroxy-4-trifluoromethyl-pent-2-enyl]-cholecalciferol [Compound 6]”, the IC50 (IFN-γ production) was 0.044 nM.
